Consider 6 molecules from patent publication US9248109B2, “High penetration prodrug compositions of peptides and peptide-related compounds” (priority 2009, dated 2016).

Data set [1] deals with Osborne-Mendel rats. The following applies: injected intraperitoneally, rats starved overnight, high-fat diet; cited from earlier work.
The test system of data set [2] is mice. The data set can be described thus: Acetic acid writhing inhibition in mice, transdermal. It is filed as in vivo, mouse. The following applies: 10 mg/kg transdermally to the neck, acetic acid i.p. 30 minutes later; for rate of writhing inhibition (%): based on the control group; for No. of Writhings: control 35.0. As for the experimental part: The number of writhings that occurred when mice were administered an acetic acid solution intraperitoneally were counted, and the rate of inhibition based on the control group was calculated. […] 30 minutes later, acetic acid solution was administered. The group A was the control group.
Background: In writhing tests, fewer writhes than in controls are read as antinociception.

Data set [3] relates to rats. The data set is described as follows: Solicitation and copulation of rats treated transdermally with HPPs/HPCs of Melanocortin II. It is filed as in vivo, rat. Particulars: for increase in copulation comparing to the control group / increase in solicitation comparing to the control group: 2 mg/kg once per day for 5 days; for Increased Copulation / Increased Solicitation: 2 mg/kg on the back once per day for 5 days, control = 1. The protocol:
The same dosage of cyclo(1,6)-Ac-Nle-Asp-His-Phe-Arg(NO2)-Trp-Lys-OCH2CH2N(CH2CH3)2.HCl(SEQ ID NO: 201) (peptide B) was applied to the back of another group of male rats (Group B-1, 30 rats). Rats of a control group were not treated with any drug. […] 6 fold increase in solicitation and 3 fold increase in copulation for Group B-1 in rats were observed comparing to the control group (Table 15).
2 mg/kg peptide A and peptide B in 0.2 ml of pH 7.0 phosphate buffer (0.1M) were applied to the back of both male rats (30 rats) and female rats (30 rates) once per day for 5 days. Rats of a control group were not treated with any drug.

The nature of data set [4]: In vitro penetration rate across isolated human skin in modified Franz cells (HPLC). The following applies: parent drugs; at lowest detectable value, considered not detectable.
Method: The penetration rates of HPPs/HPCs and their parent drugs through human skin were measured in vitro by modified Franz cells. The Franz cells had two chambers, the top sample chamber and the bottom receiving chamber. The human skin tissue (360-400 p.m thick) that separated the top and the receiving chambers was isolated from the anterior or posterior thigh areas.
A compound tested (2 mL, 20% in 0.2 M phosphate buffer, pH 7.4) was added to the sample chamber of a Franz cell. The receiving chamber contains 10 ml of pH 7.4 phosphate buffer (0.2 M) which was stirred at 600 rpm. The amount of the tested compound penetrating the skin was determined by high-performance liquid chromatography (HPLC) method.
[5] abbreviates: male and female rats treated (Groups A-2, B-2).
Setting [6] is: male rats treated (Groups A-1, B-1).

In the case of H-Val-Pro-Asp-Pro-Arg OH, the “food intake (in words)” value in data set [1] is recorded as “dose-dependent reduction in food intake”.

In the case of “Ac-Tyr(Ac)-D-Ala-Gly-Phe-Leu-OCH2CH2N(CH2CH3).HCl”, in data set [2], the “rate of writhing inhibition (%)” value is 85% and the “No. of Writhings” value is given as 5.2.

Consider HCl.H-Tyr(Ac)-D-Ala-Gly-Phe-Met(O)—OL, for which, in data set [2], the “rate of writhing inhibition (%)” value is given as 91% and the “No. of Writhings” value is 3.2.

For the molecule “cyclo(1,6)-Ac-Nle-Asp-His-Phe-Arg(diAc)-Trp-Lys-OCH2CH2N(CH2CH3)2.HCl”, in data set [3] (setting [5]), the “increase in copulation comparing to the control group” value amounted to 5 fold and the “increase in solicitation comparing to the control group” value amounted to 6 fold. In data set [3] (male and female rats treated), the “Increased Copulation” value is on record as 5 and the “Increased Solicitation” value was 6. In data set [3] (setting [6]), the “increase in copulation comparing to the control group” value was 3 fold and the “increase in solicitation comparing to the control group” value came out at 5 fold. Moreover, in data set [3] (male rats treated), the “Increased Copulation” value came out at 3 and the “Increased Solicitation” value was found to be 5.

With `CSCC[C@H](NC(=O)[C@H](Cc1ccccc1)NC(=O)CNC(=O)CNC(=O)[C@@H](N)Cc1ccc(O)cc1)C(=O)O` [Met-enkephalin, H-Tyr-Gly-Gly-Phe-Met-OH], the apparent flux value in data set [4] amounted to 1 μg/cm^2/h.

As for “HCl.H-Tyr(Ac)-D-Ala-Gly-Phe-Leu-OCH2(CH2)4—CH3 [B]”, in data set [2], the “rate of writhing inhibition (%)” value turned out to be 75% and the “No. of Writhings” value is reported as 8.6.
